We go through 27 compounds from US9612237B2, “Ritalinic acid immunoassay” (Randox Laboratories Limited, priority 2013, dated 2017).

What is called IC50 is the concentration that inhibits the measured activity by half.

≈ marks a conversion by molar mass, not a printed value. Where a name gives a salt, the structure may show the parent alone. Read-outs that look alike come from different tables or passages of the source. Where only a bound is given, the exact number is not on record here.

In experiment [1] the test system is antibodies of the invention (antisera generated in response to immunogen of Example 5). Kind of experiment: Competitive chemiluminescent biochip immunoassay, antiserum raised against immunogen of Example 5, HRP conjugate of Example 6. Type of experiment: binding, sheep. Conditions: for No measurable CR at given concentration: value is the concentration at which no cross-reactivity was exhibited; for Cross-reactivity / IC50: biochip; for Cross-reactivity: based on 100% specificity to RA; for IC50: calibrator concentration which produces 50% B/B0.

Experiment [2] has as its system antisera generated in response to immunogen of Example 11. Kind of experiment: Competitive chemiluminescent biochip immunoassay, antisera raised against immunogen of Example 11, conjugate of Example 12. It is filed as binding, sheep. Particulars: for IC50 / % cross reactivity: biochip; for % cross reactivity: relative to methylphenidate = 100.
In experiment [3] the test system is antibodies of the invention (antisera generated in response to immunogen of Example 5). Description: ELISA, antiserum raised against immunogen of Example 5, HRP conjugate of Example 6. It is filed as binding, sheep. Particulars: for Ave OD: absorbance at 450 nm; for % CR: relative to ritalinic acid = 100. The protocol:
Immunogen (2 mg) from Examples 5 or 11 was prepared in PBS, mixed at a ratio of 50% immunogen in PBS to 50% Freund's Complete Adjuvant (Sigma, Product Number F5881) and emulsified by repeatedly passing the mixture through a tip on the end of a 1 ml syringe, until semi-solid. The emulsified mixture (1 ml) was injected intramuscularly into the sheep (the primary immunisation dose). Further injections (boosts) were prepared (1 mg of immunogen is prepared in PBS and mixed at a ratio of 50% immunogen PBS/50% Freunds Incomplete adjuvant, Sigma, Product Number—F5506) and injected (1 ml) intramuscularly at monthly intervals. Serum was sampled monthly by collection of whole blood from the jugular vein for evaluation of the antibody titre. Prior to immobilisation on a solid substrate (for example, the biochip), the serum was purified using caprylic acid/ammonium sulphate precipitation, as described for example in Chapter 4 of “Making and Using Antibodies—A Practical Handbook” 2nd Edition, edited by G C Howard and M R Kaser, CRC Press.
The ELISA data provided below correspond to the same immunogen, antibody and tracer combination used to generate the Biochip standard curves, i.e. antibodies of the invention (antisera generated in response to immunogen of Example 5) and (2-(4-aminophenyl)-2-(piperidin-2-yl) acetic acid conjugated to HRP (Example 6). The assay methodology used to generate the ELISA data was standard ELISA methodology. Briefly, a microtitre plate was coated with Ig fraction of the antiserum produced at 5 μg/ml, prepared in Tris buffer, pH8.5. The coated plate was simultaneously incubated with calibrator/sample (from 0 ng/ml-80 ng/ml) and HRP conjugate at ⅛K dilution. After washing and substrate addition, absorbances were read at 450 nm. The absorbance in each well was inversely proportional to the concentration of ritalinic acid or methylphenidate hydrochloride in the calibrator/sample added to that well.

Experiment [4] relates to Abcam polyclonal sheep antibody to MPH. Particulars: Abcam antibody raised using MPH-BTG as the immunogen; cited from earlier work.
The mark [5] stands for this setting: value is the concentration at which no cross-reactivity was exhibited.
Setting [6] is: Methylphenidate calibrator 78.13 ng/ml.
[7] abbreviates: Methylphenidate calibrator 156.25 ng/ml.
Setting [8] is: Methylphenidate calibrator 312.50 ng/ml.
Setting [9] is: Methylphenidate calibrator 625 ng/ml.
Where [10] appears, read: Methylphenidate calibrator 1,250.00 ng/ml.
The mark [11] stands for this setting: Methylphenidate calibrator 2,500.00 ng/ml.
[12] abbreviates: Methylphenidate calibrator 5,000.00 ng/ml.
Setting [13] is: Methylphenidate calibrator 10,000.00 ng/ml.

Consider `CC(=O)Nc1ccc(O)cc1` [Acetoaminophen], for which the “No measurable CR at given concentration” value in experiment [1] came to 1000 µg/mL. Also, the “Concentration exhibiting no cross-reactivity” value in experiment [2] (setting [5]) stood at 2500 µg/mL.
For `CCO[C@@H]1O[C@H](C(=O)O)[C@@H](O)[C@H](O)[C@H]1O` [Ethyl glucuronide], in that order: 100 µg/mL and 100 µg/mL.
Consider `CCOC(=O)C(c1ccccc1)C1CCCCN1` (stereo not shown) [Ethylphenidate], for which, in experiment [1], the “No measurable CR at given concentration” value worked out at 100 µg/mL.
For `O=C(CCCN1CCC(O)(c2ccc(Cl)cc2)CC1)c1ccc(F)cc1` [Haloperidol], the “No measurable CR at given concentration” value in experiment [1] worked out at 10 µg/mL. Besides, the “Concentration exhibiting no cross-reactivity” value in experiment [2] (setting [5]) worked out at 10 µg/mL.
Turning to `CC(C)Cc1ccc(C(C)C(=O)O)cc1` (stereo not shown) [Ibuprofen], the “No measurable CR at given concentration” value in experiment [1] was 1000 µg/mL. Besides, the “Concentration exhibiting no cross-reactivity” value in experiment [2] (value is the concentration at which no cross-reactivity was exhibited, listed as ibuprofen) came out at 1000 µg/mL.
In the case of `COC(=O)C(c1ccccc1)C1CCCCN1` (stereo not shown) [Methylphenidate Hydrochloride], the IC50 in experiment [3] is given as >>>80 ng/ml. Besides, the “Ave OD” value in experiment [3] (calibrator 1.25 ng/ml) came out at 1.677; in experiment [3] (calibrator 2.5 ng/ml), 1.644; in experiment [3] (calibrator 5 ng/ml), 1.635; in experiment [3] (calibrator 10 ng/ml) it was 1.563; in experiment [3] (calibrator 20 ng/ml) it was 1.476; in experiment [3] (calibrator 40 ng/ml) it was 1.402. Also, the “Ave OD” value in experiment [3] (calibrator 80 ng/ml) turned out to be 1.311. Also, the B/Bo in experiment [3] (calibrator 1.25 ng/ml) is given as 101.9; in experiment [3] (calibrator 2.5 ng/ml), 99.9; in experiment [3] (calibrator 5 ng/ml), 99.4; in experiment [3] (calibrator 10 ng/ml) it was 95.0; in experiment [3] (calibrator 20 ng/ml) it was 89.7; in experiment [3] (calibrator 40 ng/ml) it was 85.2. Besides, the B/Bo in experiment [3] (calibrator 80 ng/ml) came out at 79.7. The “% CR” value in experiment [3] is given as <<<10.5%.
`COC(=O)C(c1ccccc1)C1CCCCN1` (stereo not shown) [Methylphenidate, methylphenidate]: the B/B0 % in experiment [1] (setting [6]) stood at 87%; in experiment [1] (setting [7]), 81%; in experiment [1] (setting [8]), 75%; in experiment [1] (setting [9]), 66%; in experiment [1] (setting [10]), 51%; in experiment [1] (setting [11]) it was 34%. The B/B0 % in experiment [1] (setting [12]) is listed as 23%; in experiment [1] (setting [13]) it was 16%. The RLU turned out to be 3878 RLU in experiment [1] (setting [6]); 3604 RLU in experiment [1] (setting [7]); 3319 RLU in experiment [1] (setting [8]); 2912 RLU in experiment [1] (setting [9]); 2244 RLU in experiment [1] (setting [10]); 1517 RLU in experiment [1] (setting [11]). The RLU was 1015 RLU in experiment [1] (setting [12]) and 697 RLU in experiment [1] (setting [13]). Besides, the Cross-reactivity result in experiment [1] was “Cross-reactivity 0.4%”. For the same compound, the IC50 result in experiment [1] is “IC50 = 1,323.50 ng/ml”; in experiment [2] it was 2.6 ng/mL (≈ 0.0111 µM). Also, in experiment [2], the “% cross reactivity” value was found to be 100%.
Turning to `CNCCC[C@@]1(c2ccc(F)cc2)OCc2cc(C#N)ccc21` [N-desmethylescilatopram], the “No measurable CR at given concentration” value in experiment [1] amounted to 10 µg/mL.
The same measure, in the same setting: the value for `N[C@H]1CC[C@@H](c2ccc(Cl)c(Cl)c2)c2ccccc21` [Norsertraline] was 10 µg/mL; that for `CNCCC=C1c2ccccc2CCc2ccccc21` [Nortriptylene] was 10 µg/mL.
With `O=C(O)C(c1ccccc1)C1CCCCN1` (stereo not shown) [RA, ritalinic acid], the B/B0 % in experiment [1] (RA calibrator 3.91 ng/ml) amounted to 65%; in experiment [1] (RA calibrator 7.81 ng/ml), 40%; in experiment [1] (RA calibrator 15.63 ng/ml) it was 31%; in experiment [1] (RA calibrator 31.25 ng/ml), 18%; in experiment [1] (RA calibrator 62.50 ng/ml), 11%; in experiment [1] (RA calibrator 125.00 ng/ml), 6%. In addition, the B/B0 % turned out to be 4% in experiment [1] (RA calibrator 250.00 ng/ml) and 2% in experiment [1] (RA calibrator 500.00 ng/ml). Besides, the RLU in experiment [1] (RA calibrator 3.91 ng/ml) was 3459 RLU; in experiment [1] (RA calibrator 7.81 ng/ml) it was 2552 RLU; in experiment [1] (RA calibrator 15.63 ng/ml) it was 1980 RLU; in experiment [1] (RA calibrator 31.25 ng/ml) it was 1111 RLU; in experiment [1] (RA calibrator 62.50 ng/ml), 677 RLU; in experiment [1] (RA calibrator 125.00 ng/ml), 374 RLU. Besides, the values for the RLU in experiment [1] (RA calibrator 250.00 ng/ml) and in experiment [1] (RA calibrator 500.00 ng/ml) were 247 RLU and 134 RLU, respectively. In addition, the figures for the Cross-reactivity entry in experiment [1] and in experiment [4] were “Cross-reactivity 100%” and “less than 0.9%”, respectively. Also, the values for the IC50 entry in experiment [1], in experiment [3] and in experiment [2] were “IC50 = 5.21 ng/ml,”, 8.41 ng/mL and 260 ng/mL (≈ 1.19 µM), respectively. The “Ave OD” value in experiment [3] (calibrator 1.25 ng/ml) is 1.346; in experiment [3] (calibrator 2.5 ng/ml), 1.169; in experiment [3] (calibrator 5 ng/ml), 0.987; in experiment [3] (calibrator 10 ng/ml) it was 0.751; in experiment [3] (calibrator 20 ng/ml) it was 0.584; in experiment [3] (calibrator 40 ng/ml), 0.424. Also, the “Ave OD” value in experiment [3] (calibrator 80 ng/ml) amounted to 0.311. The B/Bo in experiment [3] (calibrator 1.25 ng/ml) is 82.4; in experiment [3] (calibrator 2.5 ng/ml), 71.5; in experiment [3] (calibrator 5 ng/ml) it was 60.4; in experiment [3] (calibrator 10 ng/ml) it was 46.0; in experiment [3] (calibrator 20 ng/ml), 35.7; in experiment [3] (calibrator 40 ng/ml), 26.0. For the same compound, the B/Bo in experiment [3] (calibrator 80 ng/ml) is listed as 19.0. In addition, the “% CR” value in experiment [3] was determined as 100%. The “% cross reactivity” value turned out to be 1% in experiment [2] and 1.0% in experiment [2] (listed as ritalinic acid).
In the case of `O=C(O)c1ccccc1O` [Salicylic acid], the “No measurable CR at given concentration” value in experiment [1] is 1000 µg/mL. Moreover, in experiment [2] (setting [5]), the “Concentration exhibiting no cross-reactivity” value worked out at 1000 µg/mL.
On to `COc1cccc(C2(O)CCCCC2CN(C)C)c1` (stereo not shown) [Tramadol], for which the “No measurable CR at given concentration” value in experiment [1] amounted to 10 µg/mL.
The same measure, in the same setting: the figure for `CNCCC(Oc1ccc(C(F)(F)F)cc1)c1ccccc1` (stereo not shown) [fluoxetine] is 100 µg/mL; for `Clc1cccc(N2CCNCC2)c1` [mCPP] it is 10 µg/mL.
Take `COc1cccc(C2(O)CCCCC2CN(C)C)c1` (stereo not shown) [tramadol HCl]: the “Concentration exhibiting no cross-reactivity” value in experiment [2] (setting [5]) was determined as 10 µg/mL.
Same read-out and setting: the figure for `O=c1n(CCCN2CCN(c3cccc(Cl)c3)CC2)nc2ccccn12` [trazodone HCl] is 10 µg/mL.
With `O=c1n(CCC[N+]2([O-])CCN(c3cccc(Cl)c3)CC2)nc2ccccn12` [trazodone N-oxide], in experiment [2], the “Concentration exhibiting no cross-reactivity” value was determined as 0.4 µg/mL.
Regarding `O=C(O)C(Cl)(Cl)Cl` [trichloroacetic acid], the “Concentration exhibiting no cross-reactivity” value in experiment [2] (setting [5]) amounted to 100 µg/mL.
Still for that read-out and setting: the value for `O=C(O)[C@H]1O[C@@H](OCC(Cl)(Cl)Cl)[C@H](O)[C@@H](O)[C@@H]1O` [urochloralic acid] was 100 µg/mL.
Same read-out and setting: the value for `COc1ccc(C(CN(C)C)C2(O)CCCCC2)cc1` (stereo not shown) [venlafaxine HCl] was 0.18 µg/mL; that for `CCN(C(C)=O)c1cccc(-c2ccnc3c(C#N)cnn23)c1` [zaleplon] was 10 µg/mL; that for `Cc1ccc(-c2nc3ccc(C)cn3c2CC(=O)N(C)C)cc1` [zolpidem tartrate] was 10 µg/mL.
The same measure, in the same setting: the figure for `CN1CCN(C(=O)OC2c3nccnc3C(=O)N2c2ccc(Cl)cn2)CC1` (stereo not shown) [zopiclone] is 10 µg/mL.
As for Dextromorphan, the “No measurable CR at given concentration” value in experiment [1] amounted to 10 µg/mL.
For the compound dextrorphan tartrate salt, in experiment [2] (setting [5]), the “Concentration exhibiting no cross-reactivity” value stood at 0.25 µg/mL.
Still for that read-out and setting: the value for salicylic acid B-D glucuronide was 125 µg/mL.
